In ChEMBL document CHEMBL4433250, “Structure-based design of potent linear peptide inhibitors of the YAP-TEAD protein-protein interaction derived from the YAP omega-loop sequence” (Bioorg Med Chem Lett, 2019):
Active and inactive are the calls of the source. The rule behind the calls is not given here. Where a SMILES comes first, the peptide text is derived from it. [ ]: non-standard residue; d: D form. Trp(6-Cl) = N[C@@H](Cc1c[nH]c2cc(Cl)ccc12)C(=O)O; Phe(3-F) = N[C@@H](Cc1cccc(F)c1)C(=O)O; 1Nal = N[C@@H](Cc1cccc2ccccc12)C(=O)O; Hyp = O=C(O)[C@@H]1C[C@@H](O)CN1; Cba = N[C@@H](CC1CCC1)C(=O)O; Nle = CCCC[C@H](N)C(=O)O; Ac3c = NC1(C(=O)O)CC1

Legend:
[1] = target: T1, Transcriptional enhancer factor TEF-3 (Homo sapiens, UniProt Q15561); experiment: Inhibition of human TEAD4 (217 to 434 residues) expressed in Escherichia coli BL21 (DE3) interaction with N-biotinylated YAP (60 to 100 residues) incubated for 2 hrs by TR-FRET assay
T1 sequence (Q15561 whole entry, the tested form may be a part): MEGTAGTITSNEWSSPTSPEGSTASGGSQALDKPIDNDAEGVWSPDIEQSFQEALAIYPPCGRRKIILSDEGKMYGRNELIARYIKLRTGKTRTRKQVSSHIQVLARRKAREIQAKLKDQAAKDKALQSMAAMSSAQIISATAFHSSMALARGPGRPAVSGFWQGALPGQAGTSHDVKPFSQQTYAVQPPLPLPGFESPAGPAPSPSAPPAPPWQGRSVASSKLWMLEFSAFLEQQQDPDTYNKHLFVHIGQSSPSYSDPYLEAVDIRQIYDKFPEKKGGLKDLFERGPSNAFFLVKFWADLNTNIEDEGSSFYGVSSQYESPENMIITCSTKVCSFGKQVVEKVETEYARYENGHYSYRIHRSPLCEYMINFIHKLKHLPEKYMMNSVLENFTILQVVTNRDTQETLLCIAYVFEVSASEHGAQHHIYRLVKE

[2] = target: T1, Transcriptional enhancer factor TEF-3; experiment: Binding affinity to Avi-tagged human TEAD4 (217 to 434 residues) expressed in Escherichia coli BL21 (DE3) by SPR assay
[3] = target: T1, Transcriptional enhancer factor TEF-3; experiment: Inhibition of TEAD4 in human SF268 ::MCAT-Luc RGA model cells up to 20 uM by YAP/TEAD-dependent luciferase reporter gene assay

Row | Molecule | IC50 [1] | Kd [2] | inhibition [3]
1 | CCCC[C@H](NC(=O)[C@@H]1CCCN1)C(=O)N[C@@H](CCCNC(=N)N)C(=O)N[C@@H](CC(C)C)C(=O)N[C@@H](CCCNC(=N)N)C(=O)N[C@@H](CCCCN)C(=O)N[C@@H](CC(C)C)C(=O)N1CCC[C@H]1C(=O)N[C@@H](CC(=O)O)C(=O)N[C@@H](CO)C(=O)N[C@@H](Cc1ccccc1)C(=O)N[C@@H](Cc1ccccc1)C(=O)N[C@@H](CCCCN)C(=O)N1CCC[C@H]1C(=O)N1CCC[C@H]1C(=O)O (H-P[Nle]RLRKLPDSFFKPP-OH) | 67.7 µM |  | 
2 | CC(C)C[C@H](NC(=O)[C@H](CCCNC(=N)N)NC(=O)[C@H](Cc1c[nH]c2cc(Cl)ccc12)NC(=O)[C@@H]1CCCN1)C(=O)N[C@@H](CCCNC(=N)N)C(=O)N[C@@H](CCCCN)C(=O)N[C@@H](CC(C)C)C(=O)N1CCC[C@H]1C(=O)N[C@@H](CC(=O)O)C(=O)N[C@@H](CO)C(=O)N[C@@H](Cc1ccccc1)C(=O)N[C@@H](Cc1ccccc1)C(=O)N[C@@H](CCCCN)C(=O)N1CCC[C@H]1C(=O)N1CCC[C@H]1C(=O)O (H-P[Trp(6-Cl)]RLRKLPDSFFKPP-OH) | 5.83 µM |  | 
3 | CCCC[C@H](NC(=O)[C@H](CCCCN)NC(=O)[C@H](CCCNC(=N)N)NC(=O)[C@H](CC(C)C)NC(=O)[C@H](CCCNC(=N)N)NC(=O)[C@H](Cc1c[nH]c2cc(Cl)ccc12)NC(=O)[C@@H]1CCCN1)C(=O)N1CCC[C@H]1C(=O)N[C@@H](CC(=O)O)C(=O)N[C@@H](CO)C(=O)N[C@@H](Cc1cccc(F)c1)C(=O)N[C@@H](Cc1ccccc1)C(=O)N[C@@H](CCCCN)C(=O)N1CCC[C@H]1C(=O)N1CCC[C@H]1C(=O)O (H-P[Trp(6-Cl)]RLRK[Nle]PDS[Phe(3-F)]FKPP-OH) | 2.4 µM |  | 
4 | H-PMRLRKLPDSFFKPP-OH | 70 µM |  | 
5 | H-PWRLRKLPDSFFKPP-OH | 24.2 µM |  | 

These reach a lower IC50 [1]. Values come first.

Row | IC50 [1] | Kd [2] | inhibition [3] | Molecule
6 | 0.045 µM |  |  | CC(C)C[C@H](NC(=O)[C@H](CCCNC(=N)N)NC(=O)[C@H](Cc1c[nH]c2cc(Cl)ccc12)NC(=O)[C@@H]1CCCN1)C(=O)N[C@@H](CCCNC(=N)N)C(=O)N[C@@H](CCCCN)C(=O)N[C@@H](CC1CCC1)C(=O)N1CCC[C@H]1C(=O)N[C@@H](CC(=O)O)C(=O)N[C@@H](CO)C(=O)N[C@@H](Cc1ccccc1)C(=O)N[C@@H](Cc1cccc2ccccc12)C(=O)N[C@@H](CCCCN)C(=O)N[C@@H](CCC(=O)O)C(=O)N1CCC[C@H]1C(=O)O (H-P[Trp(6-Cl)]RLRK[Cba]PDSF[1Nal]KEP-OH)
7 | 0.216 µM |  |  | CC(C)C[C@H](NC(=O)[C@H](CCCNC(=N)N)NC(=O)[C@H](Cc1c[nH]c2cc(Cl)ccc12)NC(=O)[C@@H]1CCCN1)C(=O)N[C@@H](CCCNC(=N)N)C(=O)N[C@@H](CCCCN)C(=O)N[C@@H](CC1CCC1)C(=O)N1CCC[C@H]1C(=O)N[C@@H](CC(=O)O)C(=O)N[C@@H](CO)C(=O)N[C@@H](Cc1ccccc1)C(=O)N[C@@H](Cc1cccc2ccccc12)C(=O)N[C@@H](CCCCN)C(=O)N1CCC[C@H]1C(=O)N1CCC[C@H]1C(=O)O (H-P[Trp(6-Cl)]RLRK[Cba]PDSF[1Nal]KPP-OH)
8 | 0.016 µM | 0.025 µM | inactive | CC(C)C[C@H](NC(=O)[C@H](CCCNC(=N)N)NC(=O)[C@H](Cc1c[nH]c2cc(Cl)ccc12)NC(=O)[C@@H]1CCCN1)C(=O)N[C@@H](CCCNC(=N)N)C(=O)N[C@@H](CCCCN)C(=O)N[C@@H](CC1CCC1)C(=O)N1C[C@H](O)C[C@H]1C(=O)N[C@@H](CC(=O)O)C(=O)N[C@@H](CO)C(=O)N[C@@H](Cc1ccccc1)C(=O)N[C@@H](Cc1cccc2ccccc12)C(=O)N[C@@H](CCCCN)C(=O)N[C@@H](CCC(=O)O)C(=O)N1CCC[C@H]1C(=O)O (H-P[Trp(6-Cl)]RLRK[Cba][Hyp]DSF[1Nal]KEP-OH)
9 | 1.56 µM |  |  | CCCC[C@H](NC(=O)[C@H](CCCCN)NC(=O)[C@H](CCCNC(=N)N)NC(=O)[C@H](CC(C)C)NC(=O)[C@H](CCCNC(=N)N)NC(=O)[C@H](Cc1c[nH]c2cc(Cl)ccc12)NC(=O)[C@@H]1CCCN1)C(=O)N1CCC[C@H]1C(=O)N[C@@H](CC(=O)O)C(=O)N[C@@H](CO)C(=O)N[C@@H](Cc1ccccc1)C(=O)N[C@@H](Cc1ccccc1)C(=O)N[C@@H](CCCCN)C(=O)N1CCC[C@H]1C(=O)N1CCC[C@H]1C(=O)O (H-P[Trp(6-Cl)]RLRK[Nle]PDSFFKPP-OH)
10 | 0.409 µM |  |  | CCCC[C@H](NC(=O)[C@H](CCCCN)NC(=O)[C@H](CCCNC(=N)N)NC(=O)[C@H](CC(C)C)NC(=O)[C@H](CCCNC(=N)N)NC(=O)[C@H](Cc1c[nH]c2cc(Cl)ccc12)NC(=O)[C@@H]1CCCN1)C(=O)N1CCC[C@H]1C(=O)N[C@@H](CC(=O)O)C(=O)N[C@@H](CO)C(=O)N[C@@H](Cc1ccccc1)C(=O)N[C@@H](Cc1cccc2ccccc12)C(=O)N[C@@H](CCCCN)C(=O)N1CCC[C@H]1C(=O)N1CCC[C@H]1C(=O)O (H-P[Trp(6-Cl)]RLRK[Nle]PDSF[1Nal]KPP-OH)
11 | 0.009 µM |  |  | N=C(N)NCCC[C@H](NC(=O)[C@H](Cc1c[nH]c2cc(Cl)ccc12)NC(=O)[C@@H]1CCCN1)C(=O)NC1(C(=O)N[C@@H](CCCNC(=N)N)C(=O)N[C@@H](CCCCN)C(=O)N[C@@H](CC2CCC2)C(=O)N2C[C@H](O)C[C@H]2C(=O)N[C@@H](CC(=O)O)C(=O)N[C@@H](CO)C(=O)N[C@@H](Cc2ccccc2)C(=O)N[C@@H](Cc2cccc3ccccc23)C(=O)N[C@@H](CCCCN)C(=O)N[C@@H](CCC(=O)O)C(=O)N2CCC[C@H]2C(=O)O)CC1 (H-P[Trp(6-Cl)]R[Ac3c]RK[Cba][Hyp]DSF[1Nal]KEP-OH)
